Source: PMC3509570, “Bioavailability and Brain-Targeting of Geniposide in Gardenia-Borneol Co-Compound by Different Administration Routes in Mice” (International Journal of Molecular Sciences, 2012)
“And” between values parts separate entries of the source, which are not always exact repeats. Equal values may be shown once. Read-outs that look alike come from different tables or passages of the source.

Columns and labels:
[1] = Plasma pharmacokinetics of Ge in mice after i.v., i.n. and i.g. administration of Gardenia-Borneol co-compound; type: in vivo; settings: for bioavailability / Cmax / AUC(0-t) / MRT last / Tmax: mouse; for bioavailability: read-out: F (absolute bioavailability); for Cmax / AUC(0-t) / MRT last / Tmax: 18 mg/kg gardenia extract + 18 mg/kg borneol; for AUC(0-t): read-out: AUC0–120 (converted); for MRT last: read-out: MRT0–120 (converted)
Protocol: Non-compartmental analysis of pharmacokinetic data was performed by Kinetica 4.4 software. The absolute bioavailability was F, F = AUCblood (i.n./i.g.)/AUCblood (i.v.) × 100%.
(§1) The separation was carried out using a Diamonsil C18 column ([…], i.d., 5.0 μm) under the following chromatographic conditions: column temperature, 25 °C; sample injection volume, 20 μL; flow rate, 1.0 mL/min; detection wavelength, 238 nm; and mobile phase, acetonitrile-water(14:86).
(§2) 1% (v/v) of Tween-80 and 20% (v/v) ethanol were dissolved in physiological saline and used as the solvent for drugs. 1.2 g of borneol fine powder and 1.2 g gardenia extract were dissolved into 10 mL solvent, named as co-compound nasal drops. Dilute 0.3 mL of nasal drops precisely with 1% Tween 80-normal saline solution into 10 mL, filtrate by 0.22 μm filter, named as co-compound injection. Dilute 0.3 mL of nasal drops precisely with 1% Tween 80-normal saline solution into 10 mL, named as co-compound intragastric solution.
(§3) 120 mice were divided into 3 groups (A, B, C), equally and randomly, 40 for each group. Group A was injected 0.1 mL co-compound injection via the tail vein. Group B was treated 3 μL nasal drops with a soft PE polyethylene tube after anesthesia by ether steam. Group C was treated 0.1 mL co-compound intragastric solution. The doses chosen for the mice were 18mg/kg·d (borneol and gardenia extract, respectively), 3 times based on the doses for human beings. The blood samples were collected into heparinized tubes by pricking the eyeball. Then, mice were killed by decollation. The corresponding brains were also collected at 1, 3, 5, 10, 30, 60, 90 and 120 min after drug administration. The brains were accurately weighed, and plasma was obtained after centrifugation. The sample processing and determination were immediately made when plasma and brain tissue were obtained.
Plasma sample (100 μL) was placed into a centrifuge tube. To precipitate proteins in the sample, 300 μL acetonitrile was added and vortexed for 1 min. After centrifugation at 10,000 rpm for 10 min, supernatant was removed and evaporated under air stream in a water bath at 60 °C. The residue was dissolved in 100 μL of methanol and vortexed for 30 s, centrifuged at 10,000 rpm for 10 min. 20 μL of supernatant was injected into the HPLC system for analysis.

[2] = cited from earlier work
[3] = octanol/water system; cited from earlier work
[4] = Brain pharmacokinetics and brain targeting of Ge in mice after i.v., i.n. and i.g. administration of Gardenia-Borneol co-compound; type: in vivo; settings: for Kp / MRT last / Cmax / Tmax / AUC(0-t): mouse; for Kp: read-out: Te (brain/blood drug ratio); for MRT last / Cmax / Tmax / AUC0–120 / AUC(0-t): brain; for Cmax: 18 mg/kg gardenia extract + 18 mg/kg borneol; for AUC(0-t): read-out: AUC0–120 (converted)
Protocol: The relative brain targeted coefficient was Re, Re = AUCbrain (i.n./i.g.)/AUCbrain (i.v.) × 100%. The brain/blood drug ratio was Te, Te = AUCbrain/AUCblood × 100%. So the drug target index was DTI, DTI = Te(i.n. /i.g.)/Te(i.v). […] AUC0–120 was 37270.5 ± 4160.6, 32413.6 ± 4573.9 and 6440.1 ± 863.7 […] for i.v., i.n. and i.g., respectively.
as §1, §2, §3
The brains were washed by normal saline to remove excess surface blood and were dried by filter paper. The bloodless brains were homogenized after mixing with normal saline solution 1.5 times to the weight. After centrifugation at 12,000 rpm for 5 min, 600 μL methanol (the brain homogenate was 300 μL) was added in the supernatant to precipitate proteins in the sample. After being vortexed for 1 min, the solution was centrifuged at 12,000 rpm for 5 min. Then, supernatant was removed and evaporated under air stream in a water bath at 60 °C. The residue was dissolved in 100 μL of methanol and vortexed for 30 s, centrifuged at 12,000 rpm for 5 min. 20 μL aliquot supernatant was injected into the HPLC system for analysis.

[5] = inhaled or intranasal, plasma, i.n.
[6] = ICR, in vivo, po, 18 mg/kg, i.g.
[7] = ICR, inhaled or intranasal, 18 mg/kg, i.n.

Which “Cmax in plasma relative to i.v.” value ([1]; i.g. vs i.v.) does the source give for COC(=O)C1=CO[C@@H](O[C@@H]2O[C@H](CO)[C@@H](O)[C@H](O)[C@H]2O)[C@@H]2C(CO)=CC[C@H]12 [Ge, geniposide] here?
The value was 1/20.

What about the “Cmax in plasma relative to i.v.” value ([1]; i.n. vs i.v.) of the same compound?
Its value is “up to 1/2”.

And the bioavailability ([1]; in vivo, 18 mg/kg, i.g. vs i.v.)?
The bioavailability was 28.8%.

What about the bioavailability ([1]; in vivo, 18 mg/kg, i.v. (reference), F = AUCblood(i.n./i.g.)/AUCblood(i.v.) × 100%) of the same compound?
Its bioavailability is 100%.

And the Cmax ([1]; in vivo, iv, plasma, i.v.)?
The Cmax was 42400 ± 6270 ng/mL.

And the AUC(0-t) ([1]; in vivo, iv, plasma, i.v.)?
The AUC(0-t) was 5410 ng·h/mL.

What about the MRT last ([1]; in vivo, iv, plasma, i.v.) of the same compound?
The MRT last was 15 min.

And the Tmax ([1]; in vivo, po, 18 mg/kg, plasma, i.g.)?
Its Tmax is ~30 min.

What about the Cmax ([1]; in vivo, po, plasma, i.g.) of the same compound?
The Cmax was 1910 ± 327 ng/mL.

What about the AUC(0-t) ([1]; in vivo, po, plasma, i.g.) of the same compound?
Its AUC(0-t) is 1560 ng·h/mL.

And the MRT last ([1]; in vivo, po, plasma, i.g.)?
Its MRT last is 42 min.

And the Cmax [1, 5]?
The Cmax was 21900 ± 5400 ng/mL.

And the Tmax [1, 5]?
Its Tmax is 1 min.

What about the AUC(0-t) [1, 5] of the same compound?
Its AUC(0-t) is 4620 ng·h/mL.

And the MRT last [1, 5]?
Its MRT last is 31.7 min.

And the bioavailability ([1]; plasma, other: i.n. (nasal drops), 18 mg/kg, i.n. vs i.v.)?
Its bioavailability is 85.4%.

And the “intranasal absorption coefficient (K)” value ([2]; Ge alone)?
Its value is 0.061 h⁻¹.

What about the “intranasal absorption coefficient (K)” value ([2]; Ge in Gardenia-Borneol co-compound) of the same compound?
Its value is 0.11 h⁻¹.

What about the log p [3] of the same compound?
Its log p is −0.97.

And the Kp ([4]; ICR, in vivo, i.g.)?
The Kp was 0.0689.

And the Kp ([4]; ICR, in vivo, i.n.)?
The Kp was 0.117.

What about the MRT last ([4]; ICR, in vivo, iv, 18 mg/kg) of the same compound?
Its MRT last is 48.3 min.

What about the Kp ([4]; ICR, in vivo, iv, Te = AUCbrain/AUCblood × 100%) of the same compound?
The Kp was 0.115.

What about the Cmax ([4]; ICR, in vivo, iv, i.v.) of the same compound?
Its Cmax is 1480 ± 145 ng/g.

What about the MRT last [4, 6] of the same compound?
The MRT last was 60 min.

What about the Tmax [4, 6] of the same compound?
Its Tmax is 1 h.

And the Cmax ([4]; ICR, in vivo, po, i.g.)?
The Cmax was 76.2 ± 22.1 ng/g.

What about the MRT last [4, 7] of the same compound?
Its MRT last is 51.2 min.

What about the Tmax [4, 7] of the same compound?
Its Tmax is 0.05 h.

What about the Cmax ([4]; ICR, inhaled or intranasal, i.n.) of the same compound?
The Cmax was 747 ± 175 ng/g.

And the “AUC0–120” value ([4]; i.g.)?
Its value is 6440.1 ± 863.7 ng·min/g.

And the “AUC0–120” value ([4]; i.n.)?
The value was 32413.6 ± 4573.9 ng·min/g.

What about the “AUC0–120” value ([4]; i.v.) of the same compound?
The value was 37270.5 ± 4160.6 ng·min/g.

And the “Re (relative brain targeted coefficient)” value ([4]; i.g. vs i.v.)?
The value was 17.28% and 17.28 ^** %.

What about the “brain peak concentration compared to the i.v. group” value ([4]; i.g. vs i.v.) of the same compound?
Its value is 1/20.

What about the “DTI (drug target index)” value ([4]; i.n. vs i.v.) of the same compound?
Its value is 1.02.

And the “Re (relative brain targeted coefficient)” value ([4]; i.n. vs i.v.)?
Its value is 86.97%.

And the “brain peak concentration compared to the i.v. group” value ([4]; i.n. vs i.v.)?
Its value is “up to 1/2”.

What about the “DTI (drug target index)” value ([4]; i.v. (reference), DTI = Te(i.n./i.g.)/Te(i.v.)) of the same compound?
The value was 1.

And the “Re (relative brain targeted coefficient)” value ([4]; i.v. (reference), Re = AUCbrain(i.n./i.g.)/AUCbrain(i.v.) × 100%)?
The value was 100%.

And the AUC(0-t) ([4]; in vivo, inhaled or intranasal, 18 mg/kg, i.n.)?
The AUC(0-t) was 540 µg·h/mL.

What about the AUC(0-t) ([4]; in vivo, iv, 18 mg/kg, i.v.) of the same compound?
The AUC(0-t) was 621 µg·h/mL.

What about the AUC(0-t) ([4]; in vivo, po, 18 mg/kg, i.g.) of the same compound?
The AUC(0-t) was 107 µg·h/mL.

And the Tmax ([4]; in vivo, po, i.g.)?
Its Tmax is ~1 h.
